Key:
IL-1β mRNA = assay: Cytokine mRNA expression inhibitory ability, IL-1β, LPS-treated Raw264.7 cells; type: cell-based; settings: 1 μM compound 24 hours, then 100 ng/ml LPS 24 hours
Description: Evaluation of cytokine mRNA expression inhibitory ability according to inflammatory response
In order to identify inhibition of p-p38 MAPK, inhibition of p38 MAPK was identified after treating each compound to Raw264.7 cells obtained by converting macrophages that induces inflammation according to p-p38 MAPK activity cancerous cells. Briefly, Raw264.7 cells were cultured in Dulbecco's modified Eagle Medium supplemented with 10% fetal bovine serum and penicillin/streptomycin (100 U/ml). Raw264.7 cells were treated with 1 μM of Compounds 1 to 5 according to the present disclosure in a culture dish respectively and cultured for 24 hours in a CO2 incubator, and then treated with 100 ng/ml of LPS, followed by additional culture for 24 hours in a CO2 incubator.
After cell culture was terminated according to the experimental conditions, cells were washed with cold phosphate buffered saline (PBS). The cells were then collected and centrifuged at 1200 rpm for 3 minutes. RNA was extracted according to the method provided in the Hybrid-R total RNA purification kit (GeneAll, 305-101). After measuring the concentration and purity of RNA using Nanodrop, cDNA was synthesized according to the method provided in TOPscript RT DryMIX (Enzynomics, RT200). After a reaction at 95° C. for 3 minutes using SYBR Green Mix along with primer, cDNA was subjected to repetitive reactions 30 times at 95° C. for 10 seconds, at 55° C. for 10 seconds, and at 72° C. for 30 seconds to determine the RNA expression level. The results are shown in Tables 5 and 6 below and FIGS. 1 and 2.

p-p38 MAPK = p-p38 MAPK (Mus musculus (Mouse), UniProt P47811); assay: p38 MAPK protein inhibitory ability in normal brain cells (p-p38 immunoblot, primary neurons); type: cell-based, ICR mice
p-p38 MAPK, sequence (P47811 whole entry): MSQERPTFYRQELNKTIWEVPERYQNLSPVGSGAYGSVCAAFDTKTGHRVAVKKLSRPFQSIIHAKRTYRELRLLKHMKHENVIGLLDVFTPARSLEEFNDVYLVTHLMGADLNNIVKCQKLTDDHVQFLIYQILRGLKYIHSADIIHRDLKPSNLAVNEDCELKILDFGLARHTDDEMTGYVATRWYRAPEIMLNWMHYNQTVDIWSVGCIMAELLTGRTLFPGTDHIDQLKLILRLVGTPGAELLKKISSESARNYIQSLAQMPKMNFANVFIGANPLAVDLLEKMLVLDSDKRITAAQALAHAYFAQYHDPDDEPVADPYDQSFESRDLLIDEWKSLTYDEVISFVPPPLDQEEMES
Source text: Evaluation of p38 MAPK protein inhibitory ability in normal brain cells
In order to identify inhibition of p-p38 MAPK in normal cells rather than cancer cells, the inhibition of p38 MAPK was identified by inducing inflammation after treating neuron cells obtained from cerebrum of ICR mice with each compound. In short, neurons were collected from the cerebrum of the embryos of ICR mice 17-18 days after gestation and cultured for 7 days in a neurobasal medium supplemented with 2% B27 supplements, 2 mM glutamine, and penicillin/streptomycin (100 U/ml). Primary neurons were treated with 1 μM of Compounds 4 and 6 according to the present disclosure in a culture dish respectively and cultured for 24 hours in a CO2 incubator, and then treated with 1000 ng/ml of LPS, followed by additional culture for 6 hours in a CO2 incubator.
After the cell culture was terminated according to the experimental conditions, washing was performed with cold phosphate buffered saline (PBS). The cells were then collected and centrifuged at 1200 rpm for 3 minutes. The cells in the sediment were lysed with 2X sample buffer (1M Tris-HCl pH 6.8, 50% glycerol, 10% SDS, 2-mercaptoethanol, 1% bromophenol blue) and boiled at 100° C. for 10 minutes. The prepared protein samples were subjected to sodium dodecyl sulfate poly acrylamide gel electrophoresis and transferred to PVDF membrane (Millipore). For a specific binding reaction between the protein in the PVDF membrane and antibody, blocking was performed in a 5% bovine serum albumin (BSA, RMbio) solution. Subsequently, the BSA solution was discarded, and the membrane was washed with PBS-T (0.5% Tween 20 in PBS). The binding reaction between the protein in the membrane and antibody was performed overnight at 4° C. and washed again with PBS-T. Finally, a secondary antibody (Cell signaling Technology) conjugated with horse radish peroxidase (HRP) was diluted in PBS-T and reacted at room temperature for 2 hours. Luminata Forte HRP substrate (Millipore) was used to determine the amount of protein in the membrane, the results of which are shown in Table 9 below.

IL-6 mRNA = assay: Cytokine mRNA expression inhibitory ability, IL-6, LPS-treated BV2 cells; type: cell-based; settings: 1 μM compound 24 hours, then 1000 ng/ml LPS 24 hours
Description: Evaluation of cytokine mRNA expression inhibitory ability by inflammatory response
In order to identify inhibition of p-p38 MAPK, the inhibition of p38 MAPK was identified by treating each compound to BV2 cells obtained by converting microglia that induces inflammation according to p-p38 MAPK activity in the brain into cancerous cells. Briefly, BV2 cells were cultured in Dulbecco's modified Eagle Medium supplemented with 10% fetal bovine serum and penicillin/streptomycin (100 U/ml). BV2 cells were treated with 1 μM of Compounds 4 to 6 according to the present disclosure in a culture dish respectively and cultured for 24 hours in a CO2 incubator, and then treated with 1000 ng/ml of LPS, followed by additional culture for 24 hours in a CO2 incubator.
After the cell culture was completed according to the experimental conditions, washing was performed with cold phosphate buffered saline (PBS). The cells were then collected and centrifuged at 1200 rpm for 3 minutes. RNA was extracted according to the method provided in the Hybrid-R total RNA purification kit (GeneAllR), 305-101). After measuring the concentration and purity of RNA using Nanodrop, cDNA was synthesized according to the method provided in TOPscript RT DryMIX (Enzynomics, RT200). […]

- inhibition at 1 µM (p-p38 MAPK; primary neurons from cerebrum of ICR mouse embryos, 1 μM compound 24 hours, then 1000 ng/ml LPS 6 hours): 55.8%
SMILES: Cc1c(F)cc(C(=O)NC2CC2)cc1-c1ccc(C(=O)c2c[nH]c3ccccc23)cn1 [Compound 4, 3-(5-(1H-indole-3-carbonyl)pyridin-2-yl)-N-cyclopropyl-5-fluoro-4-methylbenzamide]
- IL-1β mRNA inhibition (IL-1β mRNA): 38.2%
- p38 phosphorylation due to inflammation in normal cells (result in words) (p-p38 MAPK; primary mouse neurons, 1 μM): effectively inhibited p38 phosphorylation
- IL-6 mRNA inhibition (IL-6 mRNA): 52.8%
